Measurements taken from patent US10660884B2, “Phosphonate-chloroquine conjugates and methods using same” (University of Rochester, priority 2015, dated 2020).

Assays:
[1] = tested on: WT mouse bone marrow (BM) cells (OC precursors); test: Osteoclastogenesis assay: OC formation on plastic, TRAP staining; format: cell-based; details: for Inhibition of osteoclast activity by osteoclast staining: WT mouse BM cells, images FIGS. 11-12
TRAF3 = test: Western blot of RANKL-induced TRAF3 degradation; format: cell-based, mouse; details: 3 μM, 8 hrs, Western blotting
Experimental: WT mouse BM cells, cultured with M-CSF as in FIG. 6, were treated with vehicle, BTCQ, CQ or NC-BTCQ (3 μM) for 8 hrs. Cell lysates were used to test TRAF3 and actin protein levels by Western blotting.
Cultured cells were lysed with M-Per mammalian protein extraction reagent. 10-20 μg protein were loaded onto 10% SDS-PAGE gels, transferred onto polyvinylidene difluoride membranes, incubated with primary and secondary Abs, followed by exposure to ECL substrate. Signals were analyzed using a Bio-Rad imaging system.

bone resorption = details: cited from earlier work; for Prevention of bone resorption in mice: literature report
[2] = literature; cited from earlier work

Compound	Inhibition of osteoclast activity by osteoclast staining [1]	OC formation (OC numbers after TRAP staining) ([1]; BM cells on plastic, M-CSF 2 days, then RANKL plus compound 3 more days)	Concentration at which OC formation was inhibited (BTCQ more effective than CQ) ([1]; on plastic, FIG. 2A) [µM]	Prevention of RANKL-induced degradation of TRAF3 (TRAF3)	Dose that effectively blocks PTH-induced marrow fibrosis (bone resorption; Xiu Y et al., 2014) [mg/kg]	Prevention of bone resorption in mice (bone resorption)	Blindness, share of patients [2]
CCN(CC)CCCC(C)N(C(=O)OCCCCCCCC(=O)NC(P(=O)(O)O)P(=O)(O)O)c1ccnc2cc(Cl)ccc12 (racemic) [UR-11, rac-(13-(7-chloroquinolin-4-yl)-18-ethyl-14-methyl-3,12-dioxo-11-oxa-2,13,18-triazaicosane-1,1-diyl)diphosphonic acid]	more effective at inhibiting osteoclast activity than the non cleavable amide UR-12	–	–	–	–	–	–
CCN(CC)CCCC(C)Nc1ccnc2cc(Cl)ccc12.O=P(O)(O)O.O=P(O)(O)O (stereo not shown) [CQ, 7-chloro-4-[[4-(diethylamino)-1-methylbutyl]amino] quinoline phosphate (1:2)]	more effective at inhibiting osteoclast activity than HCQ	inhibited OC formation	3	unlike CQ and BTCQ, NC-BTCQ does not prevent RANKL-induced degradation of TRAF3	50	prevents bone resorption and osteoporosis	–
CCN(CCO)CCCC(C)Nc1ccnc2cc(Cl)ccc12 (stereo not shown) [HCQ, hydroxychloroquine]	CQ and BTCQ are more effective at inhibiting osteoclast activity than HCQ	–	–	–	–	does not prevent bone resorption in mice	0.5-1%
